Experimental data reported in patent US20050009868A1, “Retinoid receptor pan-antagonists for stimulating chondrogenesis” (priority 2001, published 2005).
Where two headings read alike, the source gives them in different places.

Experiments:
pGL3(4×48) Sox9 reporter = test: Sox9 reporter (pGL3(4×48)) luciferase assay in transiently transfected primary limb mesenchymal cultures; format: cell-based, mouse; details: for effect on the antagonist-induced increase in Sox9 reporter activity (in words): co-treatment with AGN194301 or AGN194310
From the text: The Sox9 responsive reporter (herein referred to as the Sox9 reporter) was generated by subcloning a fragment containing a reiterated (4×48) Sox9 binding sequence coupled to the mouse Col2a1 minimal promoter (−89 to +6) into pGL3. The fragment containing the 4×48 repeat and minimal promoter was isolated as a BamH I/Hind III fragment from the original 4×48-p89Luc reporter plasmid previously described (Lefebvre et al., 1997), and was subcloned into the BgI II and Hind III sites of pGL3-basic (Promega) to generate pGL3(4×48). The reporter pW1-Col2-Luc was generated from the original p309i(182×2)βgeoCol2a1 (Zhou et al., 1995) by subcloning the regulatory region (consisting of a 309-bp promoter region and two tandem repeats of a 182-bp intron-1 fragment) into pW1 (Balkan et al., 1992) as an EcoR I/BamH I fragment. A BgI II fragment containing the luciferase gene isolated from pJD205 (de Wet et al., 1987) was subcloned into the BamH I site of pW1-Col2 to generate pW1-Col2-Luc. The pcDNA3-hSox9 expression vector was as described (Lefebvre et al., 1997). To generate a mutated form of hSox9, hSox9 was subcloned into pKSII (Stratagene) and serine 181 was replaced with alanine, using the Quick-Change XL system (Stratagene) with the following overlapping primers: 5′-[…]-3′, and 5′-[…]-3′. Following mutagenesis, the Sox9 mutant and wt Sox9 were subcloned into pcDNA3, and the serine-alanine conversion was confirmed by sequencing.
(§1) Limb mesenchymal cells were harvested from embryonic age 11.25-11.75 mouse embryos as previously described (Weston et al., 2000). The cells were resuspended at a density of about 2.5×10^7 cells/ml prior to transfections, otherwise they were resuspended at 1.5×10^7 cells/ml. For transfection purposes, cells were mixed with a DNA/FuGene6 mixture in a 2:1 ratio. FuGene6-DNA mixtures were prepared according to the manufacturer's instructions (Roche Biomolecular). Briefly, 1 μg of reporter, 1 μg of expression vector and 0.05 μg of pRLSV40 (Promega) were mixed for a total of about 2 μg DNA in 100 μL of media and FuGene6. Fifty microlitres of the DNA mixture was transferred into a sterile 1.5 ml eppendorf tube, followed by 100 μl of cells. Cells were gently triturated and 10 μl was used to seed each single well of a 24-well culture dish. After 1.5 hrs in a humidified CO2 incubator, 1 ml of media containing compounds of interest was added to each well and was subsequently replaced 24 hours following transfection. All-trans RA (at-RA; Sigma), AGN193836 (Teng et al., 1996), AGN194301 (Teng et al., 1997) and AGN194310 (Johnson et al., 1999)(Allergan Inc.) were dissolved in 95% ethanol. SB202190 and SB203580 (Calbiochem) and H89 (Sigma) were dissolved in dimethyl sulfoxide (DMSO) (BDH). 8-(4-chlorophenylthio)-cAMP (pCPT-cAMP, Sigma) was dissolved in water just prior to use.
(§2) Analysis of reporter gene activity using the Dual Luciferase Assay System was done following the manufacturer's instructions (Promega). Briefly, approximately 48 hours following the transfections, cells were washed once with PBS and lysed in 100 μl of Passive Lysis Buffer for 20 minutes. Firefly and renilla luciferase activities were determined using 40 μl of lysate in a 96-well plate-reading luminometer (Molecular Devices). Alcian blue staining of cultures was carried out as described previously (Cash et al., 1997).

[1] = test system: RA response element (pW1-βRARE3-Luc); test: Retinoic acid responsive reporter (pW1-βRARE3-Luc) luciferase assay in primary limb mesenchymal cells; format: cell-based, mouse; details: for effect on RARE reporter activity (in words): concentration series
Method: as §1, §2

[2] = test system: primary limb mesenchymal cultures; test: Cartilage nodule formation in primary limb mesenchymal cultures (alcian blue staining); format: cell-based, mouse
Method: as §1, §2

IL-2 gene expression = details: Koyama et al., 2000; read-out: IC50 for inhibition of IL-2 gene expression; cited from earlier work
Sox9 mRNA = test: Northern blot of Sox9 mRNA in limb mesenchymal cultures; format: cell-based, mouse; details: 1 μM, 2-day cultures
Method: Northern blots were carried out using total RNA from limb mesenchymal cultures, as previously described (Weston et al., 2000). Briefly, total RNA was extracted from cells cultured for 2, 4, 6 or 8 days. Cells were treated with media alone or with AGN 194301. Synthesis of the Col2a1 cDNA fragment used was as described previously (Weston et al., 2000). The Sox9 cDNA probe was made using an EST clone, GenBank accession number Al594348 (Research Genetics). The Sox9 fragment was released from pT7T3 using Eco RI and Not I.

[3] = test system: primary limb mesenchymal cultures; details: earlier work, Weston et al., 2000; cited from earlier work
[4] = day 4 alcian blue-stained cultures
[5] = 10 μM, versus untreated control cultures

CC(/C=C/C(=O)NO)=C\[C@@H](C)C(=O)c1ccc(N(C)C)cc1 [TSA, Trichostatin A]
effect on the antagonist-induced increase in Sox9 reporter activity (in words) (pGL3(4×48) Sox9 reporter): attenuated the 310-induced increase
effect on Sox9 reporter activity (in words) (pGL3(4×48) Sox9 reporter; concentration series): dose-dependent decrease in Sox9 reporter activity
effect on RARE reporter activity (in words) [1]: enhanced activity of the pW1-αRARE3tkLuc reporter in a concentration-dependent manner
cartilage nodule formation (in words) [2, 4]: decrease in the number of cartilage nodules
IC50 (IL-2 gene expression): 73 nM

Cc1ccc(C2=CC(C)(C)Oc3c(Br)cc(C(=O)Nc4ccc(C(=O)O)c(F)c4)cc32)cc1 [AGN194301, 2-Fluoro-4-[(1-(8-bromo-2,2-dimethyl-4-(4-methylphenyl)-2-H-chromen-6-yl)-methanoyl)-amino]-benzoic acid]
concentrations giving significant differences in Sox9 reporter activity (Bonferroni post-tests) (pGL3(4×48) Sox9 reporter; FIG. 1A, P at least <0.05): ≥ 100 nM
greatest induction of Sox9 reporter activity (pGL3(4×48) Sox9 reporter; at 1 μM, primary limb mesenchymal cells): about 280%
effect on Sox9 reporter activity (in words) (pGL3(4×48) Sox9 reporter; concentration series): concentration-dependent increase in reporter activity
concentrations inducing significant changes in activity of the RARE reporter (Bonferroni post-tests) ([1]; FIG. 1B, P at least <0.05): ≥ 100 nM
Sox9 mRNA expression (in words) (Sox9 mRNA): noticeable increase in Sox9 mRNA
cartilage nodule formation (in words) [3]: substantial increase in the number of cartilage nodules

O=S(=O)(NCCNC/C=C/c1ccc(Br)cc1)c1cccc2cnccc12 [H89]
effect on Sox9 reporter activity (in words) (pGL3(4×48) Sox9 reporter; 10 μM, absence of exogenous Sox9): repressed reporter activity
effect on the antagonist-induced increase in Sox9 reporter activity (in words) (pGL3(4×48) Sox9 reporter): reduced Sox9 reporter activity both in the presence or absence of AGN194301 or dnRARα
effect on Sox9 reporter activity (in words) (pGL3(4×48) Sox9 reporter; presence of co-transfected Sox9): slightly decreased reporter activity
cartilage nodule formation (in words) [2, 5]: fewer nodules are detected compared to untreated cultures

Nc1ncnc2c1nc(Sc1ccc(Cl)cc1)n2[C@@H]1O[C@@H]2COP(=O)(O)O[C@H]2[C@H]1O [pCPT-cAMP, 8-(4-chlorophenylthio)-cAMP]
increase in Sox9 reporter activity (pGL3(4×48) Sox9 reporter; 500 μM, absence of exogenous Sox9): about 4.5 fold
further increase in Sox9 reporter activity (pGL3(4×48) Sox9 reporter; co-transfection with wt Sox9 or Sox9-181A): < 1.5 fold

Oc1ccc(-c2nc(-c3ccncc3)c(-c3ccc(F)cc3)[nH]2)cc1 [SB202190]
effect on Sox9 reporter activity (in words) (pGL3(4×48) Sox9 reporter; 5 or 10 μM): decrease in Sox9 reporter activity compared to untreated controls
effect on the antagonist-induced increase in Sox9 reporter activity (in words) (pGL3(4×48) Sox9 reporter): attenuated the chondrogenic response to AGN194301
cartilage nodule formation (in words) [2, 5]: almost no cartilage nodules form

CC1=C(/C=C/C(C)=C/C=C/C(C)=C/C(=O)O)C(C)(C)CCC1 [at-RA, All-trans RA]
Sox9 reporter activity reduced to (% of control) (pGL3(4×48) Sox9 reporter; at 5 nM): 53%
effect on Sox9 reporter activity (in words) (pGL3(4×48) Sox9 reporter; concentration series): attenuated reporter activity
effect on RARE reporter activity (in words) [1]: activated the RARβ reporter to a greater extent than about 836
cartilage nodule formation (in words) [2, 4]: more potent inhibitor of cartilage nodule formation than 836

CCc1ccc(C2=CC(C)(C)Sc3ccc(C#Cc4ccc(C(=O)O)cc4)cc32)cc1 [AGN194310]
maximal induction of Sox9 reporter activity (pGL3(4×48) Sox9 reporter; at 50 nM, primary limb mesenchymal cells): ~530%
concentration inducing Sox9 reporter activity greater than the maximal response elicited by 301 (pGL3(4×48) Sox9 reporter; concentrations as low as): ≥ 10 nM
effect on RARE reporter activity (in words) [1]: attenuated by 310 more effectively than by 301
concentration at which increase in nodule formation can be observed ([2]; treatment for 4 days, alcian blue): 10 nM
